Measurements: patent publication US7160684B2, “Methods of selecting compounds for modulation of bladder function” (Wyeth, priority 2000, dated 2007)

Tests used:
[1] = system: cultured human bladder smooth muscle cells; test: Voltage clamp recording of outward current, human cells; assay type: cell-based; conditions: XE-991 (10 μM in FIG. 3d)
Method: (§1) Single cell recordings are performed with a List-Medical EPC-7 patch clamp amplifier (Adams & List Assoc., Westbury, N.Y.). Pipette electrodes had tip resistances of 2–4 MΩ and are filled with the following composition (mM): KCl (126.0), MgCl2.6H2O (4.5), ATP Mg salt (4.0), GTP tris salt (0.3), creatine PO4 (14.0), D-glucose (9.0), EGTA (9.0), HEPES (9.0). The pH is adjusted to 7.4 with KOH. Signals are acquired (3 kHz high frequency cut-off, 12 bit resolution) using a 586-based personal computer.
Whole cell recordings are made using broken patch access. Currents are evoked using either voltage steps (Vh=−50; Vt=−60 to 40 mV) or voltage ramps (−60 to 40 mV at 3.3 mV/sec.). The exact voltage clamp protocols are well known in the art. After stability is achieved control currents are recorded. Next, test compound is added to the superfusate. Currents are recorded for 5 to 10 minutes or until compound effects reach steady state. This is followed either by washout or addition of antagonists (linopirdine, XE-991) to the superfusate.
Cellular electrophysiological studies were conducted using both voltage and current clamp techniques (Hammill, O., P., Marty, A., Neher, E., Sakmann, B. & Sigworth, F. J.: Improved patch-clamp techniques for high-resolution current recordings from cells and cell-free membrane patches. Pflugers Arch 391: 85–100 (1981)) from Sprague-Dawley rat (200–400 grams) bladders as previously described, (Wojdan, A., Freeden, C., Woods, M., Oshiro, G., Spinelli, W. et al., J. Pharmacol Exp Therap 289: 1410–1418 (1999)) and from a human bladder, primary cell culture (Colnetics, San Diego, Calif.). In rat cells, the average, control resting membrane potential (RMP) was −29.0±4.5 mV. […]
Rat bladder strips were isolated and prepared as previously described (Wojdan, A., Freeden, C., Woods, M., Oshiro, G., Spinelli, W. et al., J Pharmacol ExpTherap 289:1410–1418 (1999)). […] Message for KCNQ subunits was probed using quantitative rtPCR on an ABI PRISM 7700 Sequence Detection System (TAQMAN). […]

[2] = system: isolated rat bladder smooth muscle cell; test: Voltage clamp recording of outward current, rat cells; assay type: cell-based
Description: (§2) Rat detrusor cells are isolated in a manner previously described for guinea-pig detrusor (Sheldon J H, Norton N W and Argentieri T M (1997) Inhibition of guinea pig detrusor contraction by NS-1619 is associated with activation of BKCa and inhibition of calcium currents. J Pharmacol Exp Thera 283(3): 1193–1200). Male Sprague-Dawley rats (Charles River, Wilmington, Mass.; 200–400 grams) are euthanized by CO2 inhalation and exsanguination. Their urinary bladders are rapidly removed and placed in 37° C. physiological solution with the following composition (mM): Na glutamate (80.0), NaCl (54.7), KCl (5.0), NaHCO3 (25.0), MgCl2.2H2O (2.5), D-glucose (11.8) and CaCl2 (0.2) gassed with O2—CO2, 95%/5% for a final pH of 7.4. The dome of the bladder is isolated from the trigone region and the mucosa is removed. This tissue is then cut into 2–3 mm wide strips and placed into fresh buffer for 1 hour. Tissues are then transferred into 10 ml of an isolation buffer containing the above composition plus collagenase type VIII (1.0 mg/ml) and pronase (0.25 mg/ml). After 10 minutes the isolation buffer is replaced with fresh isolation buffer for an additional 10 min. The tissue is then washed 3 times in fresh collagenase and pronase free solution and stored at room temperature until studied. Cells for study are prepared by triturating 1–2 pieces of detrusor tissue in 2 ml of fresh isolation buffer for 5 minutes with a polished Pasteur pipette, (tip diameter ˜1.5 mm) attached to a modified Harvard Respirator pump (Harvard Apparatus, Southnatic, Mass.) at a rate of 20×/min. with an approximate volume of 5 ml. Cells are then placed on a microscope stage in a temperature regulated tissue bath at 32.5° C. and continually superfused with PSS.
as §1
Whole cell recordings are made using broken patch access. Currents are evoked using either voltage steps (Vh=−50; Vt=−60 to 40 mV) or voltage ramps (−60 to 40 mV at 3.3 mV/sec.). The exact voltage clamp protocols are well known in the art. After stability is achieved control currents are recorded. Next, test compound is added to the superfusate. Currents are recorded for 5 to 10 minutes or until compound effects reach steady state. This is followed either by washout or addition of antagonists (linopirdine, XE-991) to the superfusate. […]

[3] = system: isolated rat bladder smooth muscle cell; test: Current clamp recording of resting membrane potential, rat cells; assay type: cell-based
Description: as §2, §1
Cell resting membrane potential (RMP) is measured in current clamp using the above mentioned instrumentation and pipette solutions. For these experiments nystatin is also added to the pipette solution (100 μg/ml) to allow recording through utilization of the perforated patch technique (Korn, et al, 1991). […] After this time, various antagonists (linopirdine, XE-991) are added to the perfusate and RMP is recorded for an additional 5 minutes. […]

[4] = system: isolated rat bladder strips; test: Isolated rat bladder strip contraction; conditions: strips precontracted with 20 mM KCl; for antagonism of the effects of retigabine on bladder strip contractions: 10 μM antagonist
Method: Male Sprague-Dawley rats (200–400 grams) are euthanized by CO2 inhalation and exsanguination. Their urinary bladders are rapidly removed and placed in […] physiological salt solution (PSS) that contained the following (mM): NaCl (118.4), KCl (5), CaCl2 (2.5), MgSO4 (1.2), KH2PO4 (1.2), NaHCO3 (24.9) and D-glucose (11.1) gassed with O2/CO2 (95% /5%) to achieve a pH of 7.4. The dome of the bladder is isolated from the trigon region and this tissue is then cut into 4–5 mm wide by 10 mm long strips. One end is secured to the bottom of a water jacketed tissue bath and the other to a GRASS isometric force transducer (Grass Instruments, Quincy, Mass.). Tissues are pretensioned (0.25 to 0.5 grams), and after 30 minutes of equilibration are contracted with an additional 15 mM KCl (total of 20 mM) and again allowed to equilibrate until the preparations are contracting steadily. Any of a variety of compounds are administered directly into the tissue baths as sequential concentrations. Transducer signals are digitized (12 bit resolution) and analyzed on-line using a 586-based computer and custom software. The area under the contraction curve (AUC) is used as a measure of contractility since the spontaneous bladder contractions are irregular in amplitude and frequency. A 5-minute AUC value is taken 30 minutes after administration of each compound concentration to the tissue bath.
We isolated rat bladder strips from male Sprague-Dawley rats as previously described, (Wojdan, A., Freeden, C., Woods, M., Oshiro, G., Spinelli, W. et al., J Pharmacol Exp Therap 289: 1410–1418 (1999)) and precontracted them with 20 mM KCl. The KCNQ channel agonist retigabine, was added to the tissue bath in increasing concentrations, and area under the contraction curve was analyzed.
In another study, isolated rat bladder strips were precontracted with 60 mM KCl (FIG. 1).
The difference in IC50s between 20 and 60 mM KCl depolarizations are consistent with a potassium channel opening mechanism.
Rat bladder strips were isolated and prepared as previously described (Wojdan, A., Freeden, C., Woods, M., Oshiro, G., Spinelli, W. et al., J Pharmacol ExpTherap 289:1410–1418 (1999)). Preparations were contracted with either 20 or 60 mM KCl, or 200 nM carbachol. A five minute area under the contraction curve was acquired 20 minutes after addition of each concentration of retigabine using a 12 bit D/A and a 586 based personal computer running custom software. Message for KCNQ subunits was probed using quantitative rtPCR on an ABI PRISM 7700 Sequence Detection System (TAQMAN). Forward and reverse primers and TAQMAN probes were designed using published RNA sequences for human KCNQ1–5 and rat KCNQ 1–4 listed within the NCBI data base. Since no rat sequence for KCNQ5 were currently published, probes and primers were designed by BLAST analysis of rat Expressed Sequence Tags (EST) using the known mouse KNCQ5 sequence. From homologous EST sequences, a contiguous sequence of 384 base pairs was constructed. Probes and primers were designed against this sequence. BLAST analysis of our rat KCNQ5 probes and primer were selective for mouse and human KCNQ5 sequences. PCR products were confirmed by gel electrophoresis (data not shown). Cells for electrophysiology were prepared from rat bladder smooth muscle as previously described (Wojdan et al., 1999). Human bladder smooth muscle cells were obtained from Clonetics, San Diego, Calif. […]

Molecule: O=C1c2ccccc2C(Cc2ccncc2)(Cc2ccncc2)c2ccccc21 [XE-991, 10,10-bis(4-pyridinylmethyl)-9(10H)-anthracenone]
- reversal of retigabine-induced changes (hyperpolarization, outward current) [1]: partially reversed
- reversal of retigabine-induced increase in outward current ([2]; XE-991 10 μM): partially reversed
- reversal of retigabine-induced hyperpolarization ([3]; 10 μM XE-991 after 10 μM retigabine): completely reversed
- effect on membrane potential relative to initial RMP ([3]; 10 μM XE-991 after retigabine): depolarized the cell below its initial RMP
- antagonism of the effects of retigabine on bladder strip contractions [4]: 94.8±17.5%

Molecule: COc1ccc(Cl)cc1C(=O)NCCc1ccc(S(=O)(=O)NC(=O)NC2CCCCC2)cc1 [glyburide]
- reversal of the effects of retigabine on bladder strip contractions ([4]; glyburide 10 μM): not reversed

Molecule: O=C1N(c2ccccc2)c2ccccc2C1(Cc1ccncc1)Cc1ccncc1 [linopirdine]
- reversal of retigabine-induced increase in outward current ([2]; linopirdine 50 μM): partially reversed
- antagonism of the effects of retigabine on bladder strip contractions [4]: 94.8±17.5%

Molecule: iberiotoxin (QFTDVDCSVSKECWSVCKDLFGVDRGKCMGKKCRCYQ; UniProt P24663 1-37, looked up)
- sensitivity of retigabine-induced increase in outward current to blocker ([2]; 100 nM iberiotoxin): not sensitive
